Data: patent US20050256085A1, “Fungicidal mixtures” (priority 2002, published 2005)
Where two headings read alike, the source gives them in different places.

How the values were obtained:
Phytophthora infestans = assay type: in vivo; conditions: tomato leaves, infected next day, assessed after 6 days
Plasmopara viticola = experiment: Persistency against Peronospora of grapevines caused by Plasmopara viticola; assay type: in vivo; conditions: grapevine leaves, inoculated 3 days after spraying

SMILES | Efficacy in % of the untreated control (Phytophthora infestans; 1.9 ppm in the spray liquor) | Efficacy in % of the untreated control (Phytophthora infestans; 3.75 ppm in the spray liquor) | Efficacy in % of the untreated control (Phytophthora infestans; 7.5 ppm in the spray liquor) | Efficacy in % of the untreated control (Plasmopara viticola; 1.9 ppm in the spray liquor) | Efficacy in % of the untreated control (Plasmopara viticola; 3.75 ppm in the spray liquor) | Efficacy in % of the untreated control (Phytophthora infestans; 0.19 ppm in the spray liquor) | Efficacy in % of the untreated control (Phytophthora infestans; 0.375 ppm in the spray liquor) | Efficacy in % of the untreated control (Phytophthora infestans; 0.75 ppm in the spray liquor) | Efficacy in % of the untreated control (Phytophthora infestans; 1.5 ppm in the spray liquor) | Efficacy in % of the untreated control (Phytophthora infestans; 3 ppm in the spray liquor) | Efficacy in % of the untreated control (Plasmopara viticola; 0.19 ppm in the spray liquor) | Efficacy in % of the untreated control (Plasmopara viticola; 0.375 ppm in the spray liquor) | Efficacy in % of the untreated control (Plasmopara viticola; 1.5 ppm in the spray liquor) | Efficacy in % of the untreated control (Plasmopara viticola; 3 ppm in the spray liquor)
N#Cc1sc2c(=O)c3ccccc3c(=O)c=2sc1C#N [II, dithianon] | 0% | 0% | 0% | 48% | 58% | – | – | – | – | – | – | – | – | –
CC(C)OC(=O)N[C@H](C(=O)N[C@H](C)c1nc2ccc(F)cc2s1)C(C)C [Ia] | – | – | – | – | – | 56% | 67% | 78% | 83% | 89% | 48% | 58% | 79% | 84%
